{"source": "patent EP4566598A1", "about": "“COMPOSITIONS PROVIDING SGLT2I AND BHB ACTIVITY AND METHODS OF USE TO TREAT HUMAN DISEASE” (priority 2023, dated 2025)", "key": {"SGLT2": {"target": "T1, SGLT2 (Homo sapiens, UniProt P31639)", "T1 sequence (P31639 1-672)": "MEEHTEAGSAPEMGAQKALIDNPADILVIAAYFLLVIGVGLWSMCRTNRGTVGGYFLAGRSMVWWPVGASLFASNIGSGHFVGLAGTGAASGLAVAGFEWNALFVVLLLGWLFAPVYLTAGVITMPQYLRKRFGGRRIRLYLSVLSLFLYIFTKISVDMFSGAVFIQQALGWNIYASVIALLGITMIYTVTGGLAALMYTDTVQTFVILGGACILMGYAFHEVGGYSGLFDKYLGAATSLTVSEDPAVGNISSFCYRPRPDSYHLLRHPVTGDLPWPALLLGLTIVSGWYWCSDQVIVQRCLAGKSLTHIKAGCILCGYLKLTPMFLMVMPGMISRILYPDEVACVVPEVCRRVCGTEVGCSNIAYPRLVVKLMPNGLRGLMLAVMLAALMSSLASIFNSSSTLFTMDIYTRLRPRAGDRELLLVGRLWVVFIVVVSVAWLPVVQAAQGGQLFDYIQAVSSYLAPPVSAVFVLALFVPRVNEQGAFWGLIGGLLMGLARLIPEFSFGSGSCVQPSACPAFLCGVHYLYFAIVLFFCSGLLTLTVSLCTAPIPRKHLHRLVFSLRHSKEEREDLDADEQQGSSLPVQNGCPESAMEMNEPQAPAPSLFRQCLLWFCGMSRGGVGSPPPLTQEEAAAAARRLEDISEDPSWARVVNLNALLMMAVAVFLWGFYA", "settings": "cited from earlier work"}, "vSMCs": {"test_system": "vSMCs", "settings": "via ROS-Nrf2 pathway; cited from earlier work"}, "[1]": {"settings": "cited from earlier work"}, "[2]": {"settings": "cited from earlier work", "remark": "listed apart in the source"}, "AAA [3]": {"test_system": "AAA", "settings": "PPE induced AAA; cited from earlier work"}, "[4]": {"settings": "mice; cited from earlier work"}, "[5]": {"settings": "cited from earlier work", "remark": "listed apart in the source"}, "[6]": {"settings": "cited from earlier work", "remark": "listed apart in the source"}, "AAA [7]": {"test_system": "AAA", "settings": "apoE-/- Ang II induction model; cited from earlier work"}, "human VSMCs": {"test_system": "human VSMCs", "settings": "dependent on TRAF3IP2/ROS/NLRP3/caspase-1; cited from earlier work"}, "[8]": {"test_system": "rat aortic smooth muscle cells", "settings": "in vitro; cited from earlier work"}, "abdominal PVAT": {"test_system": "abdominal PVAT", "settings": "mice fed with Western diet; cited from earlier work"}, "[9]": {"settings": "28-day study, 28 volunteers; cited from earlier work"}, "[10]": {"settings": "high-fat diet fed mice; cited from earlier work"}, "AAA [11]": {"test_system": "AAA", "settings": "murine models; cited from earlier work"}, "[12]": {"settings": "in vivo"}, "[13]": {"settings": "cited from earlier work", "remark": "listed apart in the source"}}, "note": "Several values for one entry are separate records, joined by “and”; a condition that tells them apart may be missing. Equal values may be shown once. Read-outs that look alike come from different tables or passages of the source."}
{"smiles": "Cc1ccc([C@@H]2O[C@H](CO)[C@@H](O)[C@H](O)[C@H]2O)cc1Cc1ccc(-c2ccc(F)cc2)s1", "note": "[Canagliflozin]", "values": [{"measurement": "SGLT2 selectivity over SGLT1", "setting": "SGLT2", "value": 250, "unit": "fold"}, {"measurement": "expression of heme oxygenase-1", "setting": "vSMCs", "value": "stimulates"}, {"measurement": "t1/2", "setting": "[1]; 100 mg dose", "value": 10.6, "unit": "h"}, {"measurement": "t1/2 (hours)", "setting": "[1]; 100 mg dose", "value": "10.6 (100 mg dose); hours"}, {"measurement": "Bioavailability", "setting": "[1]; 300 mg dose", "value": "65% (300 mg dose)"}, {"measurement": "t1/2", "setting": "[1]; 300 mg dose", "value": 13.1, "unit": "h"}, {"measurement": "t1/2 (hours)", "setting": "[1]; 300 mg dose", "value": "13.1 (300 mg dose) hours"}, {"measurement": "tmax", "setting": "[1]; in vivo", "value": "1 to 2", "unit": "h"}, {"measurement": "Protein binding", "setting": "[2]", "value": 99, "unit": "%"}]}
{"smiles": "CCOc1ccc(Cc2cc([C@@H]3O[C@H](CO)[C@@H](O)[C@H](O)[C@H]3O)ccc2Cl)cc1", "note": "[Dapagliflozin, (2S,3R,4R,5S,6R)-2-{4-chloro-3-[(4-ethoxyphenyl)methyl]phenyl}-6-(hydroxymethyl)oxane-3,4,5-triol]", "values": [{"measurement": "SGLT2 selectivity over SGLT1", "setting": "SGLT2", "value": 1200, "unit": "fold"}, {"measurement": "Bioavailability", "setting": "[1]; in vivo", "value": 78, "unit": "%"}, {"measurement": "t1/2", "setting": "[1]; in vivo", "value": 12.9, "unit": "h"}, {"measurement": "tmax", "setting": "[1]; in vivo", "value": "1 to 1.5", "unit": "h"}, {"measurement": "aneurysmal induction and expansion", "setting": "AAA [3]", "value": "significantly impeded"}]}
{"smiles": "OC[C@H]1O[C@@H](c2ccc(Cl)c(Cc3ccc(O[C@H]4CCOC4)cc3)c2)[C@H](O)[C@@H](O)[C@@H]1O", "note": "[Empagliflozin]", "values": [{"measurement": "Bioavailability", "setting": "[4]", "value": "90-97% and 90–97%"}, {"measurement": "Bioavailability", "setting": "[5]; dogs", "value": 89, "unit": "%"}, {"measurement": "Bioavailability", "setting": "[6]; rats", "value": 31, "unit": "%"}, {"measurement": "effect on AAA", "setting": "AAA [7]", "value": "impedes AAA"}, {"measurement": "secretion of IL-1b and IL-18", "setting": "human VSMCs", "value": "inhibits"}, {"measurement": "aortic smooth muscle cell proliferation", "setting": "[8]", "value": "significantly decreased"}, {"measurement": "Cmax", "setting": "[1]; 10 mg dose", "value": 259, "unit": "nM"}, {"measurement": "t1/2", "setting": "[1]; 10 mg dose", "value": 13.2, "unit": "h"}, {"measurement": "t1/2 (hours)", "setting": "[1]; 10 mg dose", "value": "13.2 (10 mg dose); hours"}, {"measurement": "Cmax", "setting": "[1]; 25 mg dose", "value": 687, "unit": "nM"}, {"measurement": "t1/2", "setting": "[1]; 25 mg dose", "value": 13.3, "unit": "h"}, {"measurement": "t1/2 (hours)", "setting": "[1]; 25 mg dose", "value": "13.3h (25 mg dose) hours"}, {"measurement": "tmax", "setting": "[1]; in vivo", "value": 1.5, "unit": "h"}]}
{"smiles": "CCOc1ccc(Cc2cc([C@]34OC[C@](CO)(O3)[C@@H](O)[C@H](O)[C@H]4O)ccc2Cl)cc1", "note": "[Ertugliflozin]", "values": [{"measurement": "SGLT2 selectivity over SGLT1", "setting": "SGLT2", "value": 2000, "unit": "fold"}, {"measurement": "Cmax", "setting": "[1]; 15 mg dose", "value": "268 ng/mL (15 mg dose)"}, {"measurement": "Bioavailability", "setting": "[1]; in vivo", "value": "70-90%"}, {"measurement": "t1/2", "setting": "[1]; in vivo", "value": "11 to 17", "unit": "h"}, {"measurement": "tmax", "setting": "[1]; in vivo", "value": "0.5 to 1.5", "unit": "h"}, {"measurement": "Protein binding", "setting": "[2]", "value": 95, "unit": "%"}]}
{"smiles": "OC[C@H]1O[C@@H](c2ccc(F)c(Cc3cc4ccccc4s3)c2)[C@H](O)[C@@H](O)[C@@H]1O", "note": "[Ipragliflozin]", "values": [{"measurement": "SGLT2 selectivity over SGLT1", "setting": "SGLT2", "value": 360, "unit": "fold"}, {"measurement": "inflammation, fibrosis, and adipocyte death of abdominal PVAT", "setting": "abdominal PVAT", "value": "attenuated"}, {"measurement": "t1/2 (hours)", "setting": "[1]; 50 mg dose", "value": "15-16 (50 mg dose) hours and 15–16 (50 mg dose) hours"}, {"measurement": "tmax", "setting": "[1]; 50 mg", "value": 1, "unit": "h"}, {"measurement": "Bioavailability", "setting": "[1]; in vivo", "value": 90, "unit": "%"}]}
{"smiles": "C[C@@H](O)CCOC(=O)C[C@@H](C)O", "note": "[KE-BHB]", "values": [{"measurement": "effect on body weights or composition, fasting blood glucose, cholesterol, triglyceride, or electrolyte concentrations, blood gases or kidney function", "setting": "[9]", "value": "no effect"}]}
{"smiles": "CCOc1ccc(Cc2cc([C@@H]3S[C@H](CO)[C@@H](O)[C@H](O)[C@H]3O)c(OC)cc2C)cc1", "note": "[Luseogliflozin]", "values": [{"measurement": "Bioavailability", "setting": "[5]; male dogs", "value": 97.2, "unit": "%"}, {"measurement": "Bioavailability", "setting": "[6]; female rats", "value": 58.2, "unit": "%"}, {"measurement": "SGLT2 selectivity over SGLT1", "setting": "SGLT2", "value": 1650, "unit": "fold"}, {"measurement": "intimal hyperplasia after bilateral femoral artery wire injury", "setting": "[10]", "value": "reducing intimal hyperplasia"}, {"measurement": "Cmax", "setting": "[1]; in vivo", "value": "119 ± 27.0", "unit": "ng/mL"}, {"measurement": "t1/2", "setting": "[1]; in vivo", "value": "9.24 ± 0.928", "unit": "h"}, {"measurement": "tmax", "setting": "[1]; in vivo", "value": "0.625 ± 0.354", "unit": "h"}]}
{"smiles": "Nc1ccccc1NC(=O)c1ccc(CNC(=O)OCc2cccnc2)cc1", "note": "[MS-275]", "values": [{"measurement": "effect on AAA", "setting": "AAA [11]", "value": "reduce AAA"}]}
{"smiles": "C[C@@H](O)CC(=O)O", "note": "[R-BHB, R-beta hydroxybutyrate]", "values": [{"measurement": "persistence of BHB elevation", "setting": "[12]", "value": "~ 2.5 hours"}]}
{"smiles": "C[C@H](O)CC(=O)O", "note": "[S-BHB]", "values": [{"measurement": "persistence of BHB elevation", "setting": "[12]", "value": "4 to 5", "unit": "h"}, {"measurement": "stability in human plasma compared with R/D BHB", "setting": "[13]; human plasma", "value": "far more stable"}, {"measurement": "sustained in plasma, relative to (D/R) BHB", "setting": "[13]; plasma", "value": "more than 2 x"}]}
{"smiles": "CCc1ccc(Cc2ccc3c(c2)[C@]2(OC3)O[C@H](CO)[C@@H](O)[C@H](O)[C@H]2O)cc1", "note": "[Tofogliflozin]", "values": [{"measurement": "SGLT2 selectivity over SGLT1", "setting": "SGLT2", "value": 2900, "unit": "fold"}, {"measurement": "Cmax", "setting": "[1]; 10 mg dose", "value": 489, "unit": "ng/mL"}, {"measurement": "t1/2", "setting": "[1]; 10 mg dose", "value": 6.8, "unit": "h"}, {"measurement": "Bioavailability", "setting": "[1]; 10 mg", "value": 97.50, "unit": "%"}, {"measurement": "tmax", "setting": "[1]; 10 mg", "value": 0.75, "unit": "h"}, {"measurement": "Protein binding", "setting": "[2]", "value": 83, "unit": "%"}]}
